Source: paper PMC8765310, “Metabolism, Excretion, and Mass Balance of [^14C]-Rezafungin in Animals and Humans” (Antimicrobial Agents and Chemotherapy, 2022)
*1 amine or outer side, *2 acyl side, *3 side chain or, on linkers, in order; H or OH if unused. Where a SMILES comes first, the peptide text is derived from it. Bridges are numbered along the chain shown (N, C = ends). [ ]: non-standard residue; d: D form. The star is where a group is joined. Orn(4R-OH,5R-OCH2CH2NMe3+) = C[N+](C)(C)CCO[C@@H](N[*:3])[C@H](O)C[C@H](N[*:1])C(=O)[*:2]; pTerphenylCO(4''-OnC5H11) = CCCCCOc1ccc(-c2ccc(-c3ccc(C(=O)*)cc3)cc2)cc1; hTyr(3S-OH,4S-OH) = N[C@H](C(=O)O)[C@H](O)[C@@H](O)c1ccc(O)cc1; Pro(3S-OH,4S-Me) = C[C@H]1CN[C@H](C(=O)O)[C@H]1O; Hyp = O=C(O)[C@@H]1C[C@@H](O)CN1

Legend:
[1] = Rat excretion/mass balance of [14C]-rezafungin; format: in vivo, Sprague-Dawley rats; conditions: LSC; for Radioactivity recovered in feces: mean
Description: (§1) (i) Rat study design. The study used 12 male Sprague-Dawley rats, each administered a bolus IV injection into the tail vein over approximately 3–4 min of 15 mg/kg of rezafungin (with a target radioactivity of 200 μCi/kg of [^14C]-rezafungin). Three of the rats were bile duct cannulated. Whole blood/plasma, urine, feces/bile, and cage washings were collected at periodic intervals from noncannulated rats until euthanization at 336 h postdose and from bile duct cannulated rats until euthanization at 120 h postdose as that was the duration that the patency of bile duct cannulae could be maintained. Carcasses were collected at the time of euthanization. All samples were analyzed for drug-derived radioactivity by liquid scintillation counting.
(§2) (iii) Sample analysis. Whole blood and fecal homogenates were combusted prior to analysis by liquid scintillation counting (LSC). Blood, plasma, bile, urine, cage rinse/wash, and fecal homogenate samples were mixed with scintillation fluid and analyzed for radioactivity by LSC. Rat carcasses were dissolved in potassium hydroxide, and the resulting digests were mixed with scintillation fluid and analyzed for radioactivity by LSC.

[2] = Monkey excretion/mass balance of [14C]-rezafungin; format: in vivo, cynomolgus monkeys
Description: (§3) (ii) Monkey study design. The study used 3 male cynomolgus monkeys, each administered a single 10 mg/kg IV dose of [^14C]-rezafungin (with a target radioactivity of 100 μCi/kg of [^14C]-rezafungin) by infusion into a saphenous vein over 20 min. Whole blood and plasma samples were collected at each of the following time points: predose, 0.5, 2, 4, 8, 24, 48, 96 120, 144, 168, 240, 480, 720, and 1440 h postdose. Urine, feces, and cage washings were collected at predose (urine/feces only) and daily 24-h collections for 30 days.
as §2

[3] = Monkey blood and plasma radioactivity pharmacokinetics; format: in vivo, cynomolgus monkeys
Description: as §3, §2

[4] = Rat metabolite profiling (LC-MS with radioactivity detection); format: in vivo, Sprague-Dawley rats; conditions: pooled samples, IV 15 mg/kg
Description: as §1
(§4) (iv) Metabolite profiling. The metabolite identification and urine profiling were achieved using pooled samples by equal percent weight of samples (urine, bile, feces) or by equal volume (50 μl) aliquots of each plasma sample across all time points/intervals. The urine, plasma, bile, and fecal samples were analyzed using liquid chromatography tandem mass spectrometry (LC-MS) coupled with a radioactivity flow-through detector for metabolite profiling and identification. Tandem MS experiments were performed, and the structures of the metabolites were proposed based on their MS/MS spectra. The proposed structures were confirmed by comparison of the retention times and product ion spectra with the authentic reference standards when possible.

[5] = Clinical safety in the human mass balance study; format: in vivo; conditions: single IV 400-mg infusion
Description: (i) Study design. This was an open-label, phase I, single-dose mass balance study. The study was conducted at Labcorp (formerly, Covance, Inc.; Madison, WI) in accordance with good clinical practice, including ICH guidelines and applicable regulatory requirements, and in general conformity with the Declaration of Helsinki. No animal work was conducted by Labcorp. All pertinent study documents were reviewed by the Institutional Review Board (IRB) prior to study initiation. Following IRB approval and collection of written informed consent, all the subjects underwent an initial screening assessment within 28 days of the first dose. Safety was assessed by vital signs, physical examinations, AE assessments, laboratory tests (chemistry, hematology, and urinalysis), and a 12-lead electrocardiogram.

[6] = Monkey metabolite profiling (LC-MS with radioactivity detection); format: in vivo, cynomolgus monkeys; conditions: pooled samples, IV 10 mg/kg
Description: as §3, §4

[7] = cited from earlier work
From the text: All three of the previously approved echinocandins (caspofungin, micafungin, and anidulafungin) are believed to undergo spontaneous chemical (non-enzymatic) degradation to a ring-opened peptide as their primary clearance mechanism ([18]). […] While protein binding is generally considered a factor in evaluation of half-life, rezafungin and the ...

[8] = Human metabolite profiling (HPLC with radiochemical and HRMS detection); format: in vivo; conditions: 400 mg IV
Description: (iv) Metabolite profiling. Plasma samples were pooled across subjects through 672 h postdose to produce inter-subject time point pools. Urine and fecal homogenate samples were pooled by subject across various time points up through 408 and 672 h postdose, respectively. Selected samples of plasma, urine, and feces were profiled for rezafungin and metabolites by HPLC with radiochemical and high-resolution mass spectrometry detection; metabolites were identified by HPLC with known standards and/or by HPLC-MS/MS structure elucidation. Pharmacokinetics were calculated by non-compartmental analysis using Phoenix WinNonlin software (version 6.3/8.1; Pharsight, Mountain View, CA).

[9] = bile duct cannulated rats, IV 15 mg/kg, until 120 h postdose, average
[10] = intact rats, IV 15 mg/kg, through 336 h postdose, average
[11] = monkeys, 10 mg/kg IV, through 720 h postdose

CCCCCOc1ccc(-c2ccc(-c3ccc(C(=O)N[C@H]4C[C@@H](O)[C@@H](OCC[N+](C)(C)C)NC(=O)[C@@H]5[C@@H](O)[C@@H](C)CN5C(=O)[C@H]([C@@H](C)O)NC(=O)[C@H]([C@H](O)[C@@H](O)c5ccc(O)cc5)NC(=O)[C@@H]5C[C@@H](O)CN5C(=O)[C@H]([C@@H](C)O)NC4=O)cc3)cc2)cc1 [rezafungin] ({pTerphenylCO(4''-OnC5H11)}-[Orn(4R-OH,5R-OCH2CH2NMe3+)]T[Hyp][hTyr(3S-OH,4S-OH)]T[Pro(3S-OH,4S-Me)]; lactam 1-C)
Radioactivity recovered in feces ([1]; bile duct cannulated rats (n = 3), single IV 15 mg/kg, until 120 h postdose): 35 % of the administered dose | Radioactivity recovered in the carcass ([1]; bile duct cannulated rats, IV 15 mg/kg, euthanized at 120 h postdose, average): 30 % of the administered dose | Average total recovery of radioactivity ([1]; bile duct cannulated rats, IV 15 mg/kg, until 120 h postdose): 98 % of the administered dose | Radioactivity recovered in bile [1, 9]: 17 % of the administered dose | Radioactivity recovered in cage residues [1, 9]: 1.2 % of the administered dose | Radioactivity recovered in feces ([1]; intact (non-bile duct cannulated) male rats, single IV bolus 15 mg/kg (200 μCi/kg), through 336 h postdose): 70 % of the administered dose | Radioactivity recovered in the carcass ([1]; intact rats, IV 15 mg/kg, at 336 h postdose, average): 7.9 % of the administered dose | Radioactivity recovered in cage residues [1, 10]: 2.5 % of the administered dose | Radioactivity recovered in urine [1, 10]: 14 % of the administered dose | Average total recovery of radioactivity ([2]; 3 male monkeys, single 10 mg/kg IV 20-min infusion (100 μCi/kg), at 168 h (1 week) postdose, LSC): 47.02 % of the dose | Radioactivity recovered in feces ([2]; monkeys, 10 mg/kg IV, at 720 h postdose): 60 % of the administered dose | Mean total recovery of radioactivity ([2]; monkeys, 10 mg/kg IV, through 360 h postdose): 65 % of the dose | Radioactivity recovered in cage residue [2, 11]: 4.3 % of the administered dose | Radioactivity recovered in urine [2, 11]: 9.7 % of the administered dose | t1/2 of plasma total radioactivity ([3]; monkey, IV [14C]-rezafungin 10 mg/kg, mean plasma concentrations): 170 h | Ratio of blood-to-plasma AUC (radioactivity) ([3]; monkeys, 10 mg/kg IV): approximately 1 | Time of maximum blood and plasma radioactivity concentrations ([3]; monkeys, single IV 20-min infusion 10 mg/kg, first postdose sample): 0.5 h | Radioactive component in feces and bile ([4]; rat feces and bile): predominant radioactive component | Share of total plasma radioactivity exposure ([4]; rat plasma, LC-MS with radio-detection): 56% | Treatment-emergent adverse events (TEAEs) reported, total number ([5]; 9 healthy male subjects): 13 | Deaths, SAEs ([5]; 9 subjects): no deaths or other SAEs | Laboratory assessments, vital signs, ECGs, physical examinations ([5]; 9 subjects): no clinically relevant treatment-related findings | Severe TEAEs ([5]; 9 subjects): no severe TEAEs | Subjects with diarrhea (most common TEAE) ([5]; of 9 subjects): two | Share of total recovered radioactivity in feces ([6]; monkey feces): 35% | Share of total plasma radioactivity exposure ([6]; monkey plasma, LC-MS with radio-detection): 74% | Protein binding [7]: 97.4% | Share of total recovered radioactivity in feces ([8]; human feces pooled by subject through 672 h postdose): 90% | Share of total plasma radioactivity exposure ([8]; human plasma pooled across subjects through 672 h postdose, HPLC radio/HRMS): 69% | Share of total recovered radioactivity in urine ([8]; human urine pooled by subject through 408 h postdose): negligible
